Assay results: publication PMC12287035, “Anticandidal activity of Clinopodium chilense essential oil” (Frontiers in Pharmacology, 2025)
≈ marks a conversion by molar mass, not a printed value. Read-outs that look alike come from different tables or passages of the source.

Key:
C. albicans (ATCC 7978) = assay: Broth microdilution antifungal susceptibility (CLSI M27-A3), MIC and MFC; assay type: cell-based, Candida albicans; conditions: for MFC / MIC: Candida albicans
Protocol: (§1) The antifungal activity of the EO and its main components was evaluated against reference strains and clinical isolates of Candida. The reference strains C. albicans (ATCC 7978) and C. parapsilosis (ATCC 22019) were used, as well as the clinical isolates C. albicans 10,935, C. dubliniensis 3240, Candida glabrata 10,912, C. guilliermondii 12,204, C. lusitaniae 2305, and Candida tropicalis 9841. The clinical isolates were obtained from patients of the Base Hospital of […], Los Ríos Region, Chile. After identification, the microorganisms were included in the pathogenic fungal collection (Bioassay Laboratory of University of […]íso). They are maintained in Sabouraud Dextrose Broth (SDB) with glycerol at -80°C according to established protocols ([Madrid et al., 2012]). […] Briefly, cultures of all yeast were placed on Sabouraud Dextrose Agar (SDA) and incubated for 24-72 h at temperature 37°C. Colonies of this culture were suspended in sterile 0.85% NaCl and the inoculum was standardized according to the scale of 0.5 McFarland (1-5 × 10^6 CFU/mL). The antifungal assay was conducted in 96-well plates. […] A volume of 100 μL of inoculum suspension was added to each well with the exception of the sterility control where sterile water was added to the well instead. […] Following a 24-48 h incubation at 37°C, the absorbance of the plates was measured at 540 nm using a VERSA Max microplate reader (Molecular Devices, Sunnyvale, CA, United States) for spectrophotometric analysis. […] The lowest concentration with no visible growth was defined as MFC indicating 99.5% death of the original inoculum. All experiments were performed in triplicate and repeated three times for reproducibility.

C. albicans (10,935) = assay: as above; assay type: cell-based, Candida albicans; conditions: for MFC / MIC: Candida albicans, 48 h
Protocol: as §1

C. glabrata (10,912) = assay: as above; assay type: cell-based, Candida glabrata; conditions: for MFC / MIC: Nakaseomyces glabratus, 48 h
Protocol: as §1

[1] = test system: C. guilliermondii (12,204); assay: as above; assay type: cell-based; conditions: Meyerozyma guilliermondii, 48 h
Protocol: as §1

C. tropicalis (9841) = assay: as above; assay type: cell-based; conditions: Candida tropicalis, 48 h
Protocol: as §1

C. lusitaniae (2305) = assay: as above; assay type: cell-based; conditions: for MFC/MIC ratio: C. lusitaniae; for MFC / MIC: Clavispora lusitaniae, 48 h
Protocol: as §1

Candida spp. = assay: Broth microdilution antifungal susceptibility, summary over all tested strains; assay type: cell-based; conditions: for MIC: Candida, summary over all tested strains
Protocol: as §1

[2] = test system: C. parapsilosis (ATCC 22019); assay: Broth microdilution antifungal susceptibility (CLSI M27-A3), MIC and MFC; assay type: cell-based, Candida parapsilosis; conditions: Lodderomyces parapsilosis
Protocol: as §1

[3] = test system: HEK-293T (human embryonic kidney); assay: Sulforhodamine B (SRB) cell viability assay; assay type: cell-based; conditions: 72 h, non-tumorigenic cells
Protocol: (§2) The cytotoxicity of C. chilense EO was evaluated in two non-tumorigenic human cell lines: CCD 841 CoN (colon epithelial cells) and HEK-293T (human embryonic kidney). All tested cell lines were obtained from the AmericanType Culture Collection (Rockville, MD, United States). The different cell lines were maintained as monolayers in a culture medium (HAM-F10 + DMEM, 1:1) supplemented with 10% fetal bovine serum, as well as antibiotics (0.01 mg/mL streptomycin and 0.005 mg/mL penicillin). The cells were incubated at 37 °C in a humidified 5% CO2 atmosphere.
(§3) To determine the effect on cell viability of C. chilense EO, the sulforhodamine B (SRB)assay was used to measure the number of viable cells after each treatment ([Silva et al., 2022]). Cells were seeded in 96-well plates at 3 × 10^3 cells/well in 100 μL of culture medium and treated in triplicate with increasing concentrations of essential oil (0.625–100 μg/mL) for 72 h at 37°C and 5% CO2. The cells which received only the medium containing 0.1% DMSO served as the control group. […] The dye is solubilized with 150 μL/well of 10 mM Tris Base, and the absorbance is then measured at a wavelength of 540 nm in a microplate reader. […]

[4] = test system: CCD 841 CoN (colon epithelial cells); assay: Sulforhodamine B (SRB) cell viability assay; assay type: cell-based; conditions: Homo sapiens, 72 h, non-tumorigenic cells
Protocol: as §2, §3

[5] = ATCC7978, C. albicans (ATCC 7978), 48 h, read-out: MFC
[6] = ATCC7978, C. albicans (ATCC 7978), 48 h, read-out: MIC
[7] = C. albicans (10,935), clinical isolate, read-out: MFC
[8] = C. albicans (10,935), clinical isolate, read-out: MIC
[9] = C. glabrata (10,912), clinical isolate, read-out: MFC
[10] = C. glabrata (10,912), clinical isolate, read-out: MIC
[11] = C. guilliermondii (12,204), clinical isolate, read-out: MFC
[12] = C. guilliermondii (12,204), clinical isolate, read-out: MIC
[13] = C. tropicalis (9841), clinical isolate, read-out: MFC
[14] = C. tropicalis (9841), clinical isolate, read-out: MIC
[15] = C. lusitaniae (2305), clinical isolate, read-out: MFC
[16] = C. lusitaniae (2305), clinical isolate, read-out: MIC
[17] = remaining species/strains, those not named with ratio 1
[18] = ATCC22019, C. parasilopsis (ATCC 22019), 48 h, read-out: MFC
[19] = ATCC22019, C. parasilopsis (ATCC 22019), 48 h, read-out: MIC
[20] = as stated in the text for several or all strains

SMILES | MFC (C. albicans (ATCC 7978); [5]) [µg/mL] | MIC (C. albicans (ATCC 7978); [6]) [µg/mL] | MFC (C. albicans (10,935); [7]) [µg/mL] | MIC (C. albicans (10,935); [8]) [µg/mL] | MFC (C. glabrata (10,912); [9]) [µg/mL] | MIC (C. glabrata (10,912); [10]) [µg/mL] | MFC [1, 11] [µg/mL] | MIC [1, 12] [µg/mL] | MFC (C. tropicalis (9841); [13]) [µg/mL] | MIC (C. tropicalis (9841); [14]) [µg/mL] | MFC (C. lusitaniae (2305); [15]) [µg/mL] | MIC (C. lusitaniae (2305); [16]) [µg/mL] | MFC [2, 18] [µg/mL] | MIC [2, 19] [µg/mL] | further results
Cc1ccc(C(C)C)c(O)c1 [Compound 2, thymol] | 64 (≈ 426 µM) | 64 (≈ 426 µM) | 32 (≈ 213 µM) | 32 (≈ 213 µM) | 64 (≈ 426 µM) | 64 (≈ 426 µM) | 64 (≈ 426 µM) | 32 (≈ 213 µM) | 128 (≈ 852 µM) | 64 (≈ 426 µM) | 64 (≈ 426 µM) | 32 (≈ 213 µM) | 64 (≈ 426 µM) | 32 (≈ 213 µM) | MFC/MIC ratio (C. albicans (ATCC 7978); C. albicans (ATCC 7978)): 1; MFC/MIC ratio (C. albicans (10,935); C. albicans (10,935)): 1; MFC/MIC ratio (C. glabrata (10,912); C. glabrata): 1; MFC/MIC ratio (C. lusitaniae (2305)): 1; MIC (Candida spp.): 32 to 64 µg/mL (≈ 213 to 426 µM); MFC/MIC ratio (Candida spp.; [17]): 2
CCC(C)n1ncn(-c2ccc(N3CCN(c4ccc(OCC5COC(Cn6cncn6)(c6ccc(Cl)cc6Cl)O5)cc4)CC3)cc2)c1=O (stereo not shown) [C3, itraconazole, reference compound] | 1 (≈ 1.42 µM) | 0.5 (≈ 0.709 µM) | 8 (≈ 11.3 µM) | 4 (≈ 5.67 µM) | 16 (≈ 22.7 µM) | 8 (≈ 11.3 µM) | 4 (≈ 5.67 µM) | 2 (≈ 2.83 µM) | 1 (≈ 1.42 µM) | 0.5 (≈ 0.709 µM) | 8 (≈ 11.3 µM) | 4 (≈ 5.67 µM) | 1 (≈ 1.42 µM) | 1 (≈ 1.42 µM) | –
CC(C)=C1CC[C@@H](C)CC1=O [Compound 1, pulegone] | – | – | – | – | – | – | – | – | – | – | – | – | – | – | MFC (C. albicans (ATCC 7978); ATCC7978, 48 h): 128 µg/mL (≈ 841 µM); MIC (C. albicans (ATCC 7978); ATCC7978, 48 h): 128 µg/mL (≈ 841 µM); MFC (C. albicans (10,935)): 128 µg/mL (≈ 841 µM); MIC (C. albicans (10,935)): 64 µg/mL (≈ 420 µM); MFC (C. glabrata (10,912)): 128 µg/mL (≈ 841 µM); MIC (C. glabrata (10,912)): 128 µg/mL (≈ 841 µM); MFC [1]: 128 µg/mL (≈ 841 µM); MIC [1]: 64 µg/mL (≈ 420 µM); MFC (C. tropicalis (9841)): 256 µg/mL (≈ 1680 µM); MIC (C. tropicalis (9841)): 128 µg/mL (≈ 841 µM); MFC/MIC ratio (C. lusitaniae (2305)): 1; MFC (C. lusitaniae (2305)): 64 µg/mL (≈ 420 µM); MIC (C. lusitaniae (2305)): 64 µg/mL (≈ 420 µM); MFC/MIC ratio (Candida spp.; [17]): 2; MFC ([2]; ATCC22019, 48 h): 256 µg/mL (≈ 1680 µM); MIC ([2]; ATCC22019, 48 h): 128 µg/mL (≈ 841 µM)
C[C@@H]1[C@H](O)[C@@H](C)/C=C/C=C/C=C/C=C/C=C/C=C/C=C/[C@H](O[C@@H]2O[C@H](C)[C@@H](O)[C@H](N)[C@@H]2O)C[C@@H]2O[C@](O)(C[C@@H](O)C[C@@H](O)[C@H](O)CC[C@@H](O)C[C@@H](O)CC(=O)O[C@H]1C)C[C@H](O)[C@H]2C(=O)O [C1, amphotericin B, reference compound] | 2 (≈ 2.16 µM) | 1 (≈ 1.08 µM) | 256 (≈ 277 µM) | 128 (≈ 139 µM) | 256 (≈ 277 µM) | 128 (≈ 139 µM) | 128 (≈ 139 µM) | 64 (≈ 69.3 µM) | 64 (≈ 69.3 µM) | 32 (≈ 34.6 µM) | 128 (≈ 139 µM) | 64 (≈ 69.3 µM) | 1 (≈ 1.08 µM) | 0.5 (≈ 0.541 µM) | –
O=c1[nH]cc(F)c(=O)[nH]1 [5-FU, 5-fluorouracil] | – | – | – | – | – | – | – | – | – | – | – | – | – | – | IC50 [3]: 18.3 ± 0.56 µg/mL (≈ 141 µM); IC50 [4]: 56.4 ± 0.31 µg/mL (≈ 434 µM)
CC1CCC(C(C)C)C(=O)C1 (stereo not shown) [Compound 3, isomenthone] | 128 (≈ 830 µM) | 128 (≈ 830 µM) | 128 (≈ 830 µM) | 128 (≈ 830 µM) | 128 (≈ 830 µM) | 128 (≈ 830 µM) | 128 (≈ 830 µM) | 128 (≈ 830 µM) | 128 (≈ 830 µM) | 64 (≈ 415 µM) | 64 (≈ 415 µM) | 64 (≈ 415 µM) | 128 (≈ 830 µM) | 128 (≈ 830 µM) | MIC (Candida spp.): 128 µg/mL (≈ 830 µM); MFC/MIC ratio (Candida spp.; [20]): 1
OC(Cn1cncn1)(Cn1cncn1)c1ccc(F)cc1F [C2, fluconazole, reference compound] | 1 (≈ 3.27 µM) | 0.5 (≈ 1.63 µM) | 4 (≈ 13.1 µM) | 2 (≈ 6.53 µM) | 64 (≈ 209 µM) | 32 (≈ 104 µM) | 1 (≈ 3.27 µM) | 0.5 (≈ 1.63 µM) | 1 (≈ 3.27 µM) | 0.5 (≈ 1.63 µM) | 4 (≈ 13.1 µM) | 2 (≈ 6.53 µM) | 2 (≈ 6.53 µM) | 1 (≈ 3.27 µM) | MFC/MIC ratio (Candida spp.; [20]): 2
